Read-outs that look alike come from different tables or passages of the source.
Key:
KDM5B = target: T1, KDM5B (Homo sapiens, UniProt Q9UGL1); assay: biochemical
T1 construct: Full length of KDM5B and KDM4C protein were purchased from Active Motif; purchased Active Motif 31832
Procedure: (§1) KDM4C and KDM5B AlphaScreen Assay Material and Method
(§2) Compounds disclosed herein were (and can be) screened using the following assay.
Peptides used in all experiments were purchased from Anaspe. […] Final concentration of KDM5B and KDM4C used in the assay were 0.5 nM and 0.2 nM. Final concentration of peptides for 5B and 4C used in the assay were 3 nM.
(§3) 4 μL of KDM5B or KDM4C protein were added to 384-well OptiPlate by using multiflow, followed by 4 μl of either buffer or compound. Plates were sealed, spun down and incubated at RT for 15 min. 4 μl of biotinylated peptide was added to the plate, the plate was incubated at room temperature for 25 minutes (KDM5B) and 30 minutes (KDM4C) after sealed and spun down. Streptavidin donor beads and acceptor beads were diluted and mixed in the detection buffer with 7.5 mM EDTA, followed by adding 8 μl of acceptor and donor beads mix to the plate, before the plate was sealed and incubated at room temperature for 3 h or overnight at dark. The plate was read on Envision plate reader (PerkinElmer) using Alphascreen protocol. IC50s were calculated in GraphPad Prism 6.

KDM4C = target: T2, KDM4C (Homo sapiens, UniProt Q9H3R0); assay: KDM4C AlphaScreen assay; type: biochemical; conditions: AlphaScreen; full length KDM4C 0.2 nM; biotinylated H3K9Me3 peptide 3 nM; 30 minutes at room temperature
T2 construct: Full length of KDM5B and KDM4C protein were purchased from Active Motif; purchased Active Motif 31858
T2 sequence (Q9H3R0 1-1056): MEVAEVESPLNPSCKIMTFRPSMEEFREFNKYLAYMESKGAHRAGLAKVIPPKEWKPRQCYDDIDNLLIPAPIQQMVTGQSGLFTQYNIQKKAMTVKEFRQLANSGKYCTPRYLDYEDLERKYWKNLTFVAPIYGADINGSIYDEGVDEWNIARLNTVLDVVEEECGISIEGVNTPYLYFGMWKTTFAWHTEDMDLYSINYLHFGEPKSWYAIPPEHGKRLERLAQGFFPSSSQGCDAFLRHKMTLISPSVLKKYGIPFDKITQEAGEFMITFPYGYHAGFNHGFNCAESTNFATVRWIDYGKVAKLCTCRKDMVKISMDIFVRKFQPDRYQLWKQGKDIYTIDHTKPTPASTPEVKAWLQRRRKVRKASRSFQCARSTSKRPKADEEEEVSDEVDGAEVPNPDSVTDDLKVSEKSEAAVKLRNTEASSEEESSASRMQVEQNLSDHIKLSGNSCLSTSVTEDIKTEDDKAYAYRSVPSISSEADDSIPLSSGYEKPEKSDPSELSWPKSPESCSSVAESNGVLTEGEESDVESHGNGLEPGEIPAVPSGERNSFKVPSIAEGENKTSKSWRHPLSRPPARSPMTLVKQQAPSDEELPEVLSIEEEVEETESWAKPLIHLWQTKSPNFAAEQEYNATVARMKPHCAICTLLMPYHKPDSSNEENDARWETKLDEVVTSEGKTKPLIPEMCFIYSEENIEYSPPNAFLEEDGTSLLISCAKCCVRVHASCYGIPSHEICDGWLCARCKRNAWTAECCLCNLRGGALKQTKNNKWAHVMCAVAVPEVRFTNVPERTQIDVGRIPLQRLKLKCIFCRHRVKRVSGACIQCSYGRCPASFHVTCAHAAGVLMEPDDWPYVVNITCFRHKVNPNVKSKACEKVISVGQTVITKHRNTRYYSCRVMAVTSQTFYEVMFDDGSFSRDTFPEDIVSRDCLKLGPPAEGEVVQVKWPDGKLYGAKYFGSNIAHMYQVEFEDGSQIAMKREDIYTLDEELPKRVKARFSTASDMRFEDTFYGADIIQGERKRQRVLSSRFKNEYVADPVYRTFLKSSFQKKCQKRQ
Procedure: as §1, §2
Peptides used in all experiments were purchased from Anaspe. Full length of KDM5B and KDM4C protein were purchased from Active Motif: KDM5B (cat#31832) and KDM4C (Cat #31858). Final concentration of KDM5B and KDM4C used in the assay were 0.5 nM and 0.2 nM. Final concentration of peptides for 5B and 4C used in the assay were 3 nM.
as §3, with “AlphaScreen assays was conducted as following protocol: buffer used to make compound plate or DMSO is composed of 50 mM HEPES pH 7.4, 0.003% Tween-20; buffer used to dilute enzyme is composed of 50 mM HEPES pH 7.4, 0.003% Tween-20, 0.01% BSA, 500 μM TCEP; and buffer used to dilute the substrate is composed of 50 mM HEPES pH 7.4, 0.003% Tween-20, (NH4)2Fe(SO4)2 15 μM, alpha-ketoglutaric acid 4 μM and L-ascorbic acid 100 μM. 4 μL” for “4 μL”

[1] = AlphaScreen, full length KDM5B 0.5 nM, biotinylated H3K4Me3 peptide 3 nM, 25 minutes at room temperature, read-out: KDM5B (IC50)

T1 sequence (Q9UGL1 whole entry): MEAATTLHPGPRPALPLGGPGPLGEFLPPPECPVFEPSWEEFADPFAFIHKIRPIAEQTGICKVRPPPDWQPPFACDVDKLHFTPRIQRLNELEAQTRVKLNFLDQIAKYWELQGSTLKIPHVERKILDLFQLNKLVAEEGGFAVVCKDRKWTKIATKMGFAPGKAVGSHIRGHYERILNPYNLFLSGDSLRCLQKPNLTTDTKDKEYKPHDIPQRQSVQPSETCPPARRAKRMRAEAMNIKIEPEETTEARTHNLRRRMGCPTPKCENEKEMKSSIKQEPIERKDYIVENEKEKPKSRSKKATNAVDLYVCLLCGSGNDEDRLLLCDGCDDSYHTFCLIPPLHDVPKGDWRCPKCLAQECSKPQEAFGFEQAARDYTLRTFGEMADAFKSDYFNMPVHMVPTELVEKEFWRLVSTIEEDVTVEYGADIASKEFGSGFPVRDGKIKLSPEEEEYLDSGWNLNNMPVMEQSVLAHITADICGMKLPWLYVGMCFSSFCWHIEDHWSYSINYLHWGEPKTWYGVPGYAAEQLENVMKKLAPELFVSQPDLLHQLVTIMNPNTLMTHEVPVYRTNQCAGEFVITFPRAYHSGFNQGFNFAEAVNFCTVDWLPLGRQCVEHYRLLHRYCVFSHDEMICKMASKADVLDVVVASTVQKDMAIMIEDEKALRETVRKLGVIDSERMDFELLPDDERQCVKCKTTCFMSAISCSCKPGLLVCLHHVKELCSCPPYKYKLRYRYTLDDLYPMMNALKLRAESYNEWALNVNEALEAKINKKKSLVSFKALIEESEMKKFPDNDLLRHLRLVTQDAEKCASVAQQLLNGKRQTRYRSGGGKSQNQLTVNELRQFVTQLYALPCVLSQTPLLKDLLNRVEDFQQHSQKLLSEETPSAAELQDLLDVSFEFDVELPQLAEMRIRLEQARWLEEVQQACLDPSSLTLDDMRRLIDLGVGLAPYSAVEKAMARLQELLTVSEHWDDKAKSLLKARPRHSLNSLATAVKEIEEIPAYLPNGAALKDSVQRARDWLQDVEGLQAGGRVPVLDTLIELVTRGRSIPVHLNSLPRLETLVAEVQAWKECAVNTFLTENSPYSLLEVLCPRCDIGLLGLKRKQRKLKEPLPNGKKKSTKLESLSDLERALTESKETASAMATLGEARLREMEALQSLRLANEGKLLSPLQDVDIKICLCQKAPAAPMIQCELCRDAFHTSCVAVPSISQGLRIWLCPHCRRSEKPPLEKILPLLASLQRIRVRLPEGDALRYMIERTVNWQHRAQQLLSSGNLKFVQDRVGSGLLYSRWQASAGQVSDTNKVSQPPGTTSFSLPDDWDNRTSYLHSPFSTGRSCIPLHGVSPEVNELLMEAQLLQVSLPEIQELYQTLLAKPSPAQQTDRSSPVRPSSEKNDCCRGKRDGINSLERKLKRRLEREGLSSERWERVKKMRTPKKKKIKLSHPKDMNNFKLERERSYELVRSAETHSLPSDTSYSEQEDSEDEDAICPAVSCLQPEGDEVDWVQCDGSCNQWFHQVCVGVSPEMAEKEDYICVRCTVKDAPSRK

Row | IC50 (KDM5B) [nM] | IC50 (KDM4C) [nM] | IC50 (KDM5B; [1]) [nM] | Structure (SMILES)
1 | 27 | 3670 |  | CC(C)c1c(O)nc(-n2ccnc2)nc1OCCN1CCCCC1 [Example 130, 2-(1H-Imidazol-1-yl)-6-[2-(piperidin-1-yl)ethoxy]-5-(propan-2-yl)pyrimidin-4-ol]
2 | 47 | 2050 |  | CC(C)c1c(O)nc(-n2ccnc2)nc1OC1CCOC1 (stereo not shown) [Example 135, 2-(1H-Imidazol-1-yl)-6-(oxolan-3-yloxy)-5-(propan-2-yl)pyrimidin-4-ol]
3 |  | 3080 | 18 | CC(C)c1c(O)nc(-n2ccnc2)nc1OCC1CN(C(=O)OCc2ccccc2)CCN1 (stereo not shown) [Example 127, Benzyl 3-({[6-hydroxy-2-(1H-imidazol-1-yl)-5-(propan-2-yl)pyrimidin-4-yl]-oxy}methyl)piperazine-1-carboxylate]
4 | 2130 | 13900 |  | CC(C)c1c(O)nc(-c2cncs2)nc1-c1cnn(C2CCNCC2)c1 [Example 154, 6-[1-(Piperidin-4-yl)-1H-pyrazol-4-yl]-5-(propan-2-yl)-2-(1,3-thiazol-5-yl)pyrimidin-4-ol]
5 | 18 | 869 |  | CC(C)c1c(O)nc(-n2ccnc2)nc1-c1cnn(CC(=O)NCc2ccn(C)n2)c1 [Example 106, 2-{4-[6-Hydroxy-2-(1H-imidazol-1-yl)-5-(propan-2-yl)pyrimidin-4-yl]-1H-pyrazol-1-yl}-N-[(1-methyl-1H-pyrazol-3-yl)methyl]-acetamide]
6 |  | 1540 | 20 | CC(C)c1c(O)nc(-n2ccnc2)nc1-c1cnn(CC(=O)NCCN2CCCC2=O)c1 [Example 109, 2-{4-[6-Hydroxy-2-(1H-imidazol-1-yl)-5-(propan-2-yl)pyrimidin-4-yl]-1H-pyrazol-1-yl}-N-[2-(2-oxo-pyrrolidin-1-yl)ethyl]-acetamide]
7 |  | 1400 | 19 | CC(C)c1c(O)nc(-n2ccnc2)nc1OCC1(N)CC1 [Example 128, 6-[(1-Aminocyclopropyl)-methoxy]-2-(1H-imidazol-1-yl)-5-(propan-2-yl)pyrimidin-4-ol]
8 | 6 | 477 |  | CC(C)c1c(O)nc(-n2ccnc2)nc1-c1cnn(CC(=O)NCCCCN(C)C)c1 [Example 93, N-[4-(Dimethylamino)butyl]-2-{4-[6-hydroxy-2-(1H-imidazol-1-yl)-5-(propan-2-yl)pyrimidin-4-yl]-1H-pyrazol-1-yl}acetamide]
9 | 660 | 8060 |  | CCc1c(C)nc(-c2cncs2)nc1O [Example 156, 5-Ethyl-6-methyl-2-(1,3-thiazol-5-yl)-pyrimidin-4-ol]
10 | 31 | 1450 |  | CC(C)c1c(O)nc(-n2ccnc2)nc1OCc1ccccc1 [Example 134, 6-(Benzyloxy)-2-(1H-imidazol-1-yl)-5-(propan-2-yl)pyrimidin-4-ol]
11 | 190 | 10700 |  | Cc1noc(C)c1-c1nc(-n2ccnc2)nc(O)c1C(C)C [Example 84, 6-(Dimethyl-1,2-oxazol-4-yl)-2-(1H-imidazol-1-yl)-5-(propan-2-yl)pyrimidin-4-ol]
12 | 1470 | 12400 |  | CC(C)c1c(O)nc(-c2cncs2)nc1OCC(C)(C)CO [Example 147, 6-(3-Hydroxy-2,2-dimethylpropoxy)-5-(propan-2-yl)-2-(1,3-thiazol-5-yl)-pyrimidin-4-ol]
13 |  | 340 | 6 | CC(C)c1c(O)nc(-n2ccnc2)nc1-c1cnn(CC(=O)NCCN)c1 [Example 94, N-(2-Aminoethyl)-2-{4-[6-hydroxy-2-(1H-imidazol-1-yl)-5-(propan-2-yl)pyrimidin-4-yl]-1H-pyrazol-1-yl}-acetamide]

Further lines, the compound ahead of its results:

Row | Structure (SMILES) | IC50 (KDM5B) [nM] | IC50 (KDM4C) [nM] | IC50 (KDM5B; [1]) [nM]
14 | CC(C)Cn1cc(-c2nc(-n3ccnc3)nc(O)c2C(C)C)cn1 [Example 65, 2-(1H-Imidazol-1-yl)-6-[1-(2-methylpropyl)-1H-pyrazol-4-yl]-5-(propan-2-yl)pyrimidin-4-ol] | 19 | 937 | 
15 | CC(C)c1c(O)nc(-n2ccnc2-c2ccccn2)nc1Cl [Example 2, 6-Chloro-5-(propan-2-yl)-2-[2-(pyridin-2-yl)-1H-imidazol-1-yl]pyrimidin-4-ol] | 229 | 3890 | 
16 | CC(C)c1c(O)nc(-n2ccnc2)nc1-c1cn[nH]c1 [Example 46, 2-(1H-Imidazol-1-yl)-5-(propan-2-yl)-6-(1H-pyrazol-4-yl)pyrimidin-4-ol] |  | 1130 | 10
17 | CC(C)c1c(O)nc(-n2ccnc2)nc1-c1cnn(CC(=O)NCCN2CCCC2)c1 [Example 6, 2-(4-(6-Hydroxy-2-(1H-imidazol-1-yl)-5-isopropylpyrimidin-4-yl)-1H-pyrazol-1-yl)-N-(2-(pyrrolidin-1-yl)ethyl)acetamide] | 4 | 214 | 
18 | CC(C)c1c(O)nc(-n2ccnc2)nc1-c1cnn(CCO)c1 [Example 80, 6-[1-(2-Hydroxyethyl)-1H-pyrazol-4-yl]-2-(1H-imidazol-1-yl)-5-(propan-2-yl)-pyrimidin-4-ol] | 51 | 3490 | 
19 | CC(C)c1c(O)nc(-n2ccnc2)nc1OCCC1CCN(C(=O)CCO)CC1 [Example 14, 3-hydroxy-1-[4-(2-{[6-hydroxy-2-(1H-imidazol-1-yl)-5-(propan-2-yl)pyrimidin-4-yl]oxy}-ethyl)piperidin-1-yl]propan-1-one] | 32 | 2010 | 
20 | CC(C)c1c(O)nc(-n2ccnc2)nc1C#Cc1cccnc1 [Example 10a, 2-(1H-imidazol-1-yl)-5-(propan-2-yl)-6-[2-(pyridin-3-yl)ethynyl]pyrimidin-4-ol] | 11 | 908 | 
21 | Cc1nc(-n2cncc2CO)nc(O)c1C(C)C [Example 24a, 2-[5-(hydroxymethyl)imidazol-1-yl]-5-isopropyl-6-methyl-pyrimidin-4-ol] | 45 | 499 | 
22 | Cc1ccc(-c2nc(-n3ccnc3)nc(O)c2C(C)C)cc1N [Example 54, 6-(3-Amino-4-methylphenyl)-2-(1H-imidazol-1-yl)-5-(propan-2-yl)pyrimidin-4-ol] | 15 | 896 | 
23 | CC(C)c1c(O)nc(-n2ccnc2)nc1-c1cnn(C(C)C)c1 [Example 1, 2-(1H-imidazol-1-yl)-5-isopropyl-6-(1-isopropyl-1H-pyrazol-4-yl)pyrimidin-4-ol] | 12 | 1050 | 

Reference: patent publication US20190135793A1, “HETEROCYCLIC INHIBITORS OF KDM5 FOR THE TREATMENT OF DISEASE” (Board of Regents, The University of Texas System, priority 2017, published 2019)
